Assay results taken from patent publication US11596151B2, “Compositions for the protection of agrarian crops and use thereof” (priority 2017, dated 2023).

Test: Solubility of fluindapyr in test solvent at 140 g/L, crystal growth check after one week at 0° C.
Type: physicochemical
Set-up: key: PASS: A solution without crystal growth under the storage condition was considered a Pass
Method: In order to test the solubility of an active ingredient comprising an aminoindane amide active compound, fluindapyr was added into a test solvent at the concentration of 140 g/L under sufficient agitation. The test solvents were selected based on Hansen Solubility Parameters with a Relative Energy Difference (RED) of between 0.7 and 1.6. The completed dissolved solutions were further stored for one week at 0° C. to check if any crystals grew or not under the storage condition.

For `CC1CC(C)(C)c2c(F)ccc(NC(=O)c3cn(C)nc3C(F)F)c21` (centres unmarked) [fluindapyr], the Dissolution (solvent 2-ethylhexanol) was “FAIL”, the Dissolution (solvent N,N-dimethyldecanamide) was “PASS” and the Dissolution (solvent N-butyl acetate) was “FAIL”. For the same compound, the Dissolution (solvent N-heptane) was “FAIL”, the Dissolution (solvent O-dichlorobenzene) was “FAIL” and the Dissolution (solvent POWERBLOX SV-17) was “FAIL”. The Dissolution (solvent acetonitrile) was “FAIL”, the Dissolution (solvent dibutyl ether) was “FAIL” and the Dissolution (solvent diethylene glycol monoethyl ether) was “PASS”. The Dissolution (solvent diethylene glycol monomethyl ether) was “PASS”, the Dissolution (solvent diethylene glycol n-butyl ether acetate) was “FAIL” and the Dissolution (solvent diisobutyl ketone) was “FAIL”. For the same compound, the Dissolution (solvent dimethyl formamide) was “FAIL”, the Dissolution (solvent dipropylene glycol methyl ether acetate) was “FAIL” and the Dissolution (solvent dipropylene glycol n-butyl ether) was “FAIL”. The Dissolution (solvent dipropylene glycol n-propyl ether) was “FAIL”, the Dissolution (solvent dipropyleneglycol phenyl ether) was “FAIL” and the Dissolution (solvent ethoxytriglycol) was “FAIL”. For the same compound, the Dissolution (solvent ethylene glycol monobutyl ether) was “FAIL”, the Dissolution (solvent ethylene glycol n-butyl ether acetate) was “FAIL” and the Dissolution (solvent ethylene glycol phenyl ether) was “FAIL”. For the same compound, the Dissolution (solvent isobutyl heptyl ketone) was “FAIL”, the Dissolution (solvent methyl alcohol) was “FAIL” and the Dissolution (solvent methyl ethyl ketone) was “FAIL”. For the same compound, the Dissolution (solvent methyl isobutyl ketone) was “FAIL”, the Dissolution (solvent perchloroethylene) was “FAIL” and the Dissolution (solvent propylene carbonate) was “FAIL”. For the same compound, the Dissolution (solvent propylene glycol) was “FAIL”, the Dissolution (solvent propylene glycol diacetate) was “FAIL” and the Dissolution (solvent propylene glycol monomethyl ether acetate) was “FAIL”. For the same compound, the Dissolution (solvent propylene glycol n-butyl ether) was “FAIL”, the Dissolution (solvent propylene glycol phenyl ether) was “FAIL” and the Dissolution (solvent tetrahydrofuran) was “FAIL”. The Dissolution (solvent toluene) was “FAIL” and the Dissolution (solvent tripropylene glycol n-butyl ether) was “FAIL”.
